Drawing on patent publication US20260284005A1, “INHIBITING MITOGEN-ACTIVATED PROTEIN (MAP)/ERK KINASE (MEK)1 AND MEK2 AND RELATED METHODS OF TREATMENT” (priority 2023, published 2026), this text covers IC50 and ORR for six molecules.

Read-outs that look alike come from different tables or passages of the source.

One assay relates to MIA PaCa-2 cells. As to the kind of experiment: 3D-TGA. It counts as cell-based, human. The following applies: MIA-PaCa2, PAN, KRAS G12C, read-out: IC50 in 3D-TGA, agent alone.
The subject of another assay is CFPAC-1 cells. As to the kind of experiment: 3D-TGA. The note with it: CFPAC-1, PAN, KRAS G12V, read-out: IC50 in 3D-TGA, agent alone. Format: cell-based, human. How it is done:
(§1) Cells were seeded in 3D cultures in a black-walled, clear-bottom, non-tissue culture treated, 384-well plate (3000 cells per well) using a 1:1 mixture of BME and a custom media and grown in a humidified incubator with 5% CO2 and 5% O2, which approximates capillary levels for each gas, at 37° C. […] Cells were assessed for cell proliferation using EdU cell proliferation staining. […] Cells were permeabilized with 30 μL of filtered 0.5% Triton X-100 in PBS for 20 minutes at room temperature. Samples were washed twice gently with PBS. Cells were stained utilizing click-iT chemistry by adding 20 μL of staining cocktail containing 2 mM copper sulfate, 8 μM sulfo-Cy5-azide, and 20 mg/ml ascorbic acid in PBS and incubated 30-60 minutes at room temperature in dark. […] Plates were imaged with the Molecular Devices Pico ImageXpress. Images were segmented and percentage of cells with EdU incorporation was quantified to calculate antiproliferative effects of the drugs.
(§2) Five (5)-ethynyl-2′-deoxyuridine (EdU) data was represented as percentage EdU positive cells quantified by high content imaging from the Molecular Devices ImageXpress® Pico.

A further assay relates to CL-40 cells. As to the kind of experiment: 3D-TGA. Format: cell-based, human. The following applies: read-out: IC50 in 3D-TGA, agent alone. How it is done:
as §1, §2

The next assay has as its system Capan-1 cells. As to the kind of experiment: 3D-TGA. It counts as cell-based, human. The note with it: Capan-1, PAN, KRAS G12V, read-out: IC50 in 3D-TGA, agent alone. As to the method:
as §1, §2

A further assay deals with Capan-2 cells. As to the kind of experiment: 3D-TGA. It counts as cell-based, human. The note with it: Capan-2, PAN, KRAS G12V, read-out: IC50 in 3D-TGA, agent alone. As to the method: as §1, §2
In another assay the test system is HPAC cells. As to the kind of experiment: 3D-TGA. It counts as cell-based, human. The note with it: PAN, KRAS G12D, read-out: IC50 in 3D-TGA, agent alone. As to the method: as §1, §2
The subject of the next assay is HPAF-II cells. As to the kind of experiment: 3D-TGA. Format: cell-based, human. The following applies: PAN, KRAS G12D, read-out: IC50 in 3D-TGA, agent alone. As to the method: as §1, §2
A further assay concerns HT-29 cells. As to the kind of experiment: 3D-TGA. It counts as cell-based, human. As to the method:
as §1, §2

The next assay has as its system LS1034 cells. As to the kind of experiment: 3D-TGA. The following applies: LS1034, COL, KRAS A146T, read-out: IC50 in 3D-TGA, agent alone. It counts as cell-based, human. How it is done: as §1, §2
For a further assay, the system named is PA-TU-8988T cells. As to the kind of experiment: 3D-TGA. The following applies: PAN, KRAS G12V, read-out: IC50 in 3D-TGA, agent alone. Format: cell-based, human. How it is done:
as §1, §2

The next assay relates to PANC-1 cells. As to the kind of experiment: 3D-TGA. The following applies: PANC-1, PAN, KRAS G12D, read-out: IC50 in 3D-TGA, agent alone. It counts as cell-based, human. How it is done:
as §1, §2

The next assay deals with Panc 10.05 cells. As to the kind of experiment: 3D-TGA. The note with it: Panc 10.05, PAN, KRAS G12D, read-out: IC50 in 3D-TGA, agent alone. Format: cell-based, human. As to the method: as §1, §2
The test system of another assay is RCM-1 cells. As to the kind of experiment: 3D-TGA. It counts as cell-based, human. How it is done:
as §1, §2

The subject of another assay is SNU-1197 cells. As to the kind of experiment: 3D-TGA. The following applies: read-out: IC50 in 3D-TGA, agent alone. It counts as cell-based, human. As to the method: as §1, §2
The subject of another assay is SW626 cells. As to the kind of experiment: 3D-TGA. Format: cell-based, human. As to the method: as §1, §2
Another assay relates to CORL23 cells. As to the kind of experiment: 3D-TGA. The note with it: Homo sapiens, COR-L23, CORL23, LUN, KRAS G12V, ALK R317T. Format: cell-based. As to the method: as §1, §2
In another assay the test system is NCI-H2087 cells. As to the kind of experiment: 3D-TGA. Format: cell-based. The following applies: Homo sapiens, NCI-H2087, LUN, NRAS Q61K, ALK S553A. How it is done:
as §1, §2

The subject of the next assay is SW900 cells. As to the kind of experiment: 3D-TGA. It counts as cell-based. The note with it: Homo sapiens, SW900, LUN, KRAS G12V, ALK G103R. As to the method:
as §1, §2

The next assay has as its system AsPC-1 cells. As to the kind of experiment: 3D-TGA. It counts as cell-based, human. The following applies: Homo sapiens, ASPC1; AsPC-1, PAN, KRAS G12D; read-out: IC50 in 3D-TGA, agent alone. As to the method: as §1, §2
In another assay the test system is PSN-1 cells. As to the kind of experiment: 3D-TGA. The note with it: PSN-1, PAN, KRAS G12R, read-out: IC50 in 3D-TGA, agent alone. Format: cell-based, human. How it is done: as §1, §2
A further assay concerns PA-TU-8988S cells. As to the kind of experiment: 3D-TGA. It counts as cell-based. The note with it: Homo sapiens, PaTu 8988s, PAN, KRAS G12V, read-out: IC50 in 3D-TGA, agent alone. As to the method: as §1, §2
The subject of another assay is Panc 03.27 cells. As to the kind of experiment: 3D-TGA. The following applies: Homo sapiens, PANC-03-27; Panc 03.27, PAN, KRAS G12V; read-out: IC50 in 3D-TGA, agent alone. It counts as cell-based. How it is done:
as §1, §2

In another assay the test system is pancreatic cancer. The note with it: Phase III MPACT, 1st Line; cited from earlier work.
The subject of the next assay is A549 cells. As to the kind of experiment: 3D-TGA. The following applies: A549, LUN, KRAS G12S; read-out: IC50 in 3D-TGA, agent alone. It counts as cell-based, human. As to the method: as §1, §2
The test system of another assay is Calu-6 cells. As to the kind of experiment: 3D-TGA. The following applies: Calu-6, LUN, KRAS Q61K; read-out: IC50 in 3D-TGA, agent alone. It counts as cell-based, human. How it is done:
as §1, §2

A further assay has as its system NCI-H358 cells. As to the kind of experiment: 3D-TGA. It counts as cell-based, human. The note with it: NCI-H358, LUN, KRAS G12C; read-out: IC50 in 3D-TGA, agent alone.
Where [1] appears, read: HT-29, COL, BRAF V600E, read-out: IC50 in 3D-TGA, agent alone.
[2] abbreviates: RCM-1, COL, KRAS G12V, read-out: IC50 in 3D-TGA, agent alone.
The mark [3] stands for this setting: SW626, COL, KRAS G12V, read-out: IC50 in 3D-TGA, agent alone.
Where [4] appears, read: read-out: IC50 in 3D-TGA Alectinib.
The mark [5] stands for this setting: agent alone, read-out: IC50 in 3D-TGA Crizotinib.

For orientation: IC50 means the point on the concentration scale where inhibition reaches its midpoint.

Consider `CCc1c2c(nc3ccc(O)cc13)-c1cc3c(c(=O)n1C2)COC(=O)[C@]3(O)CC` [SN-38], for which the half-maximal inhibitory concentration (IC50) was under 50 nM in the assay on MIA PaCa-2 cells; under 50 nM in the assay with CFPAC-1 cells; under 50 nM with CL-40 cells (CL-40, COL, KRAS G12D); under 50 nM with Capan-1 cells; under 50 nM in the assay with Capan-2 cells; under 50 nM in the assay with HPAC cells. The 50% inhibitory concentration (IC50) with HPAF-II cells, with HT-29 cells (setting [1]), in the assay with LS1034 cells, in the assay on PA-TU-8988T cells, in the assay with PANC-1 cells and in the assay with Panc 10.05 cells was under 50 nM in each case. Also, the IC50 with RCM-1 cells (setting [2]) is under 50 nM; with SNU-1197 cells (SNU-1197, COL, KRAS G12D) it was under 50 nM; in the assay with SW626 cells (setting [3]) it was under 50 nM.

Consider `CCc1cc2c(cc1N1CCC(N3CCOCC3)CC1)C(C)(C)c1[nH]c3cc(C#N)ccc3c1C2=O` [Alectinib, alectinib], for which the concentration for half-maximal inhibition (IC50) with CORL23 cells (setting [4]), in the assay on NCI-H2087 cells (setting [4]) and in the assay on SW900 cells (setting [4]) was 1000 nM each time.

For `C[C@@H](Oc1cc(-c2cnn(C3CCNCC3)c2)cnc1N)c1c(Cl)ccc(F)c1Cl` [Crizotinib, crizotinib], the concentration for half-maximal inhibition (IC50) in the assay on CORL23 cells (setting [5]), in the assay with NCI-H2087 cells (setting [5]) and in the assay with SW900 cells (setting [5]) was 1000 nM in each case.

Turning to `O=c1[nH]cc(F)c(=O)[nH]1` [Compound 5-FU, 5-fluorouracil], the IC50 with MIA PaCa-2 cells (Homo sapiens, MIA PaCa-2) was determined as 1000 nM; in the assay on AsPC-1 cells, 1000 nM; in the assay on CFPAC-1 cells (Homo sapiens), 1000 nM; in the assay on Capan-1 cells (Homo sapiens) it was 1000 nM; with Capan-2 cells (Homo sapiens) it was 1000 nM; with HPAC cells (Homo sapiens) it was 1000 nM. Further, the IC50 with HPAF-II cells (Homo sapiens) worked out at 1000 nM; in the assay with PANC-1 cells (Homo sapiens) it was 1000 nM; with PSN-1 cells (Homo sapiens, PSN1) it was 1000 nM; with Panc 10.05 cells (Homo sapiens, Panc1005), 1000 nM; in the assay on PA-TU-8988S cells, 1000 nM; in the assay with Panc 03.27 cells, 1000 nM.

As to `Nc1ccn([C@@H]2O[C@H](CO)[C@@H](O)C2(F)F)c(=O)n1` [Gemcitabine, gemcitabine], the IC50 in the assay on CL-40 cells (Homo sapiens) was under 50 nM; with HT-29 cells (Homo sapiens, HT-29, read-out: IC50 in 3D-TGA, agent alone), under 50 nM; in the assay on LS1034 cells (Homo sapiens, LS-1034), 500 to 1000 nM; with RCM-1 cells (Homo sapiens, RCM-1, read-out: IC50 in 3D-TGA, agent alone) it was 500 to 1000 nM; in the assay on SNU-1197 cells (Homo sapiens), 100 to 500 nM; with SW626 cells (Homo sapiens, SW626, read-out: IC50 in 3D-TGA, agent alone), 100 to 500 nM. For the same molecule, the ORR with pancreatic cancer is 7%.

Turning to `O=C1[O][Pt]2([NH][C@@H]3CCCC[C@H]3[NH]2)[O]C1=O` [Oxaliplatin, oxaliplatin], the half-inhibitory concentration (IC50) in the assay with MIA PaCa-2 cells was 1000 nM; in the assay on A549 cells, 1000 nM; in the assay on CFPAC-1 cells, 1000 nM; with CL-40 cells (CL-40, COL, KRAS G12D), 100 to 500 nM; in the assay on Calu-6 cells it was 1000 nM; in the assay on Capan-1 cells, 100 to 500 nM. Moreover, the IC50 in the assay with Capan-2 cells, with HPAC cells, with HPAF-II cells, in the assay on HT-29 cells (setting [1]), with LS1034 cells and in the assay with PA-TU-8988T cells was 1000 nM each time. Besides, the half-maximal inhibitory concentration (IC50) in the assay on PANC-1 cells was 1000 nM; in the assay with PSN-1 cells, 1000 nM; with Panc 10.05 cells, 1000 nM; in the assay on RCM-1 cells (setting [2]) it was 500 to 1000 nM; in the assay on SNU-1197 cells (SNU-1197, COL, KRAS G12D) it was 1000 nM; in the assay on SW626 cells (setting [3]), 1000 nM. Besides, in the assay on NCI-H358 cells, the 50% inhibitory concentration (IC50) was 1000 nM.
